This is an account of results in patent US12479829B2, “2-[2-methylazetidin-1-yl]-4-phenyl-6-(trifluoromethyl)-pyrimidine compounds” (Eli Lilly and Company, priority 2020, dated 2025).

For data set [1] the following is noted: administered for 6 weeks; subjects with non-alcoholic fatty liver disease; cited from earlier work.
In another data set the target is human KHK-C (Homo sapiens (Human), UniProt P50053). Nature of the data set: KHK Enzyme Activity Assay for Human KHK-C. The settings on record: fructose 250 μM, ATP 150 μM; F1P production by RapidFire MS; read-out: hKHK-C IC50. The data set is classed as biochemical. The procedure: (§1) KHK Enzyme Activity Assay for Human KHK-C and Human KHK-A
Sequence of human KHK-C (P50053 whole entry): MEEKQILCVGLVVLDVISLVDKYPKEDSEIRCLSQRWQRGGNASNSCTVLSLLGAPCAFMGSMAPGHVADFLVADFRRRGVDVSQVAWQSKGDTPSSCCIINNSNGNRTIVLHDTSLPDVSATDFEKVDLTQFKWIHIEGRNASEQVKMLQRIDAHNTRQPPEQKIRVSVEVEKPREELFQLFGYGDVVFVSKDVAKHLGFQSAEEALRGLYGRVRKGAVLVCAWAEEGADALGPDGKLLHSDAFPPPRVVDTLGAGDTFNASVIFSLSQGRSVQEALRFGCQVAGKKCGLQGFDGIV
(§2) The intrinsic potency for inhitibiton of KHK C or A activity may be measured using an enzymatic assay which measures the production of F1P. Compounds are prepared in DMSO and tested in a 10-point concentration curve, to create 3-fold serial dilutions of the compounds in a 96-well plate ranging from 20 μM to 1.02 nM. Enzyme is prepared in assay buffer [50 mM 4-(2-hydroxyethyl)piperazine-1-ethanesulfonic acid (HEPES), 10 mM potassium chloride, 100 mM magnesium chloride, 2 mM tris(2-carboxyethyl)phosphine (TCEP), 0.01% n-octyl glucoside] and incubated with compounds at RT for 15 min. The reaction is carried out in 100 μL volumes containing substrate concentrations of fructose (250 μM for KHK-C assay and 1.25 mM for KHK-A assay) and ATP (150 μM for both isoforms); which are further incubated at RT for 20 min. The reaction is then halted by the addition of stop buffer; consisting of 0.2% formic acid and 1 μg/ml ^13C6-fructose-6-phosphate (^13C6-F6P) internal standard. Plates are stored in −20° C. until RapidFire MS analysis.
(§3) RapidFire MS Analysis for Quantitation of F1P
(§4) An Agilent 300 RapidFire automated extraction system (Agilent, Santa Clara, CA) with three HPLC quaternary pumps is coupled to an Agilent 6495 triple quadrupole mass spectrometer (Agilent Technologies, Santa Clara, CA) equipped with an electrospray ionization (ESI) interface source. […]
(§5) Solvent A, used for sample loading and washing, is 6 mM octylamine (Acros Organics 129495000) brought to pH 5.0 using acetic acid. […] Samples are sequentially analyzed by aspirating 10 μL onto the collection loop under vacuum directly from multiwell plates. […]
(§6) The triple quadrupole mass spectrometer is equipped with an ESI source and analytes are monitored using selected reaction monitoring (SRM) in negative mode [M−H]−. F1P is monitored at m/z 259.02/96.9 and ^13C6-fructose-6-phospate is monitored at m/z 264.99/97. The area ratio values for F1P is calculated using ^13C6-fructose-6-phospate as internal standard.

A further data set addresses human KHK-A (Homo sapiens (Human), UniProt P50053). Briefly: KHK Enzyme Activity Assay for Human KHK-A. The data set is classed as biochemical. The settings on record: fructose 1.25 mM, ATP 150 μM; F1P production by RapidFire MS; read-out: hKHK-A IC50. The procedure: as §1, §2, §3, §4, §5, §6
Data set [2] relates to cellular KHK in HepG2 liver cells. Briefly: KHK Cellular Activity Assay (conversion of fructose to F1P in HepG2 liver cells). The settings on record: Homo sapiens, 8.33 mM D-Fructose-13C6, 3 h at 37° C. The data set is classed as cell-based. The procedure: An Agilent 300 RapidFire automated extraction system (Agilent, Santa Clara, CA) with three HPLC quaternary pumps is coupled to an Agilent 6495 triple quadrupole mass spectrometer (Agilent Technologies, Santa Clara, CA) equipped with an electrospray ionization (ESI) interface source. The RapidFire Mass Spec system is equipped with a reusable RapidFire C18 (type C) solid-phase extraction (SPE) cartridge (G9205A).
Solvent A, used for sample loading and washing, is 6 mM octylamine (Acros Organics 129495000) brought to pH 5.0 using acetic acid. Solvent B, used for sample elution, is 20% water in ACN containing 0.1% formic acid. Samples are sequentially analyzed by aspirating 10 μL onto the collection loop under vacuum directly from multiwell plates. The 10 μL of sample is loaded onto the C18 cartridge and washed using solvent A at a flow rate of 1.25 mL/min for 5000 ms. The retained analytes are then eluted to the mass spectrometer using solvent B at a flow rate of 1.25 mL/min for 5000 ms. The system is re-equilibrated using solvent A at a flow rate of 1.25 mL/min for 2000 ms.
as §6
KHK Cellular Activity Assay
Potency can be measured using a cellular assay for the inhibition of conversion of Fructose to F1P by cellular KHK. HepG2 liver cells are plated on 96-well cell culture plates in growth media [Dulbecco's Modified Eagle's medium (DMEM) high glucose, 10% heat-inactivated fetal bovine serum (HI FBS), 1×Penicillin/streptomycin] and allowed to attach overnight in a 37° C. incubator. The growth media is washed and replaced with assay media consisting of Gibco OptiMEM1 Reduced Serum Medium, 0.1% Casein, 8.33 mM D-Fructose-^13C6, and compound concentrations ranging from 100 μM to 0.0051 μM (10-point concentration curve). […]

Data set [3] is described as follows: Pharmacokinetics in Sprague Dawley Rats. The data set is classed as in vivo. The following applies: rat; for clearance / half-life / bioavailability: Sprague-Dawley, plasma, IV 1 mg/kg; for bioavailability: fasted, PO 3 mg/kg; for oral bioavailability / total clearance: result in words. The procedure: (§7) Liquid Chromatograph with Tandem Mass Spectrometry (LC-MS/MS) Method for Pharmacokinetic Assays: Samples are extracted using a protein precipitation by adding 180 μL of MeOH:ACN (1:1, v/v) containing an internal standard to 50 μL of plasma. Samples are then diluted with MeOH:Water (1:1, v/v) to get concentrations within standard curve range. Diluted samples are analyzed by LC-MS/MS using a Sciex API 4000 triple quadrupole mass spectrometer (Applied Biosystems/MDS; Foster City, CA) equipped with a TurboIonSpray interface, and operated in positive ion mode. The analytes are chromatographically separated using a ECHELON C18 4 um 20×2.1 mm column. LC conditions are Water/1 M ammonium bicarbonate, (2000:10, v/v) (Mobile Phase A), and MeOH/1 M ammonium bicarbonate, (2000:10, v/v) (Mobile Phase B).
Pharmacokinetics in Sprague Dawley Rats
The compound is administered by a single oral (PO; 3 mg/kg; volume of 10 mL/kg) or intravenous (IV; 1 mg/kg; volume of 1 mL/kg) dose in vehicle. Blood is collected from each animal at multiple time points between 0 and up to 24 hours post-dosage. The plasma concentrations of Example 2 and Example 3 are determined by a LC-MS/MS method as described above.

A short description of another data set: Pharmacokinetics in Dogs. It is filed as in vivo, Beagle Dogs. The following applies: for oral bioavailability / total clearance: dog (in the rat [sic]), result in words. The procedure:
as §7
The compound is administered by a single oral (PO; 2 mg/kg; volume of 2 mL/kg) or intravenous (IV; 1 mg/kg; volume of 1 mL/kg) dose in vehicle. Blood is collected from each animal at multiple time points between 0 and up to 24 hours post-dosage. The plasma concentrations of Example 2 and Example 3 are determined by a LC-MS/MS method as described above.

The mark [4] stands for this setting: beagle, plasma, dog, fed, IV 1 mg/kg.

A word on the IC50: it is the concentration needed to halve the response being measured. One may read the clearance as a measure of how efficiently the substance is removed, as volume per time. In general, half-life refers to how long it takes for the measured level to halve. A higher half-life goes with slow decline. As a reminder, the bioavailability is the share of a dose that reaches the circulation, judged against a reference dose that is usually intravenous. A higher bioavailability goes with good availability.

Sequence of human KHK-A (P50053 other isoform, or with tags, fused parts or gaps): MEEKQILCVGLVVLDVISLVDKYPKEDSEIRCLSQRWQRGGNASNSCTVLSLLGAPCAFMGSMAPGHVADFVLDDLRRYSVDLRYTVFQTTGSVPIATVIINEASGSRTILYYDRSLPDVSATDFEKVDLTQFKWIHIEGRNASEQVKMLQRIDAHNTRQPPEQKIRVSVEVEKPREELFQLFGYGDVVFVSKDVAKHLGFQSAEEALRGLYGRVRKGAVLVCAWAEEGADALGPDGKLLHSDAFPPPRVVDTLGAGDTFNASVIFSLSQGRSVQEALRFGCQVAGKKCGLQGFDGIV

Take `C[C@H]1CCN1c1nc(N2C[C@@H]3[C@@H](CC(=O)O)[C@@H]3C2)cc(C(F)(F)F)n1` [PF-06835919]: the “whole liver fat as measured by magnetic resonance imaging-proton density fat fraction” value in data set [1] is on record as “reduces whole liver fat”.

With `C[C@H]1CCN1c1nc(-c2ccc(C(=O)O)cc2)cc(C(F)(F)F)n1` [Example 1, 4-{2-[(2S)-2-Methylazetidin-1-yl]-6-(trifluoromethyl)pyrimidin-4-yl}benzoic acid], the results for the IC50 (at human KHK-C; on human KHK-A; in data set [2]) were 0.0226 µM, 0.0215 µM and 0.911 µM, respectively.

With `C[C@H]1CCN1c1nc(-c2ccc(C(=O)N3C[C@@H](O)[C@@H](O)C3)cc2)cc(C(F)(F)F)n1` [Example 2, [(3R,4S)-3,4-Dihydroxypyrrolidin-1-yl]-[4-{2-[(2S)-2-methylazetidin-1-yl]-6-(trifluoromethyl)pyrimidin-4-yl}phenyl]methanone], the 50% inhibitory concentration (IC50) at human KHK-C was determined as 0.0231 µM. Also, the IC50 at human KHK-A worked out at 0.0127 µM. The compound further yielded an IC50 in data set [2] of 0.186 µM. Further, in data set [3], the clearance turned out to be 5.57 mL/min/kg, the half-life is 6.42 h, the bioavailability is 65% and the oral bioavailability entry was “high”. Further, the total clearance result in data set [3] is listed as “low”. In the data set “Pharmacokinetics in Dogs” (setting [4]), this compound showed a clearance of 2.15 mL/min/kg and a half-life of 11.3 h. Moreover, in “Pharmacokinetics in Dogs”, the oral bioavailability result is given as “high” and the total clearance entry was “low”.

Turning to `C[C@H]1CCN1c1nc(-c2ccc(C(=O)NC(CO)(CO)CO)cc2)cc(C(F)(F)F)n1` [Example 3, N-[2-Hydroxy-1,1-bis(hydroxymethyl)ethyl]-4-{2-[(2S)-2-methylazetidin-1-yl]-6-(trifluoromethyl)pyrimidin-4-yl}benzamide], the IC50 stood at 0.0297 µM at human KHK-C, 0.0234 µM at human KHK-A and 0.0821 µM in data set [2]. Besides, the clearance in data set [3] is 12.7 mL/min/kg; in the data set “Pharmacokinetics in Dogs” (setting [4]) it was 4.77 mL/min/kg. The half-life is 2.95 h in data set [3]; 5.07 h in “Pharmacokinetics in Dogs” (setting [4]); 4.52 h in the data set “Pharmacokinetics in Dogs” (beagle, plasma, dog, fed, PO 2 mg/kg). Besides, the bioavailability in data set [3] was 69%; in the data set “Pharmacokinetics in Dogs” (beagle, plasma, dog, fed, PO 2 mg/kg, IV 1 mg/kg), roughly 96%. Also, the oral bioavailability entry (in data set [3]; in “Pharmacokinetics in Dogs”) was “high” in each case. Further, the total clearance entry (in data set [3]; in the data set “Pharmacokinetics in Dogs”) was “low” throughout.
